In patent US8232273B2, “Heterocyclic compounds and methods of use” (Genentech, Inc., priority 2008, dated 2012):

Key:
Bcl-2 (GST-Bcl-2) = target: T1, Bcl-2 (GST-Bcl-2) (Homo sapiens, UniProt P10415); assay: TR-FRET binding assay, competition with F-Bak for the Bcl-2 binding site; details: Bcl-2, for comparison (selectivity)
T1 construct: made in house
Procedure: For each assay plate, a probe/antibody and protein/antibody/probe mixture were included as a negative and a positive control, respectively. Fluorescence was measured on the Envision (Perkin Elmer) using a 340/35 nm excitation filter and 520/525 (F-Bak) and 495/510 nm (Tb-labeled anti-his antibody) emission filters. Dissociation constants (Ki) were determined using Wang's equation (see, Wang, Z. X. An exact mathematical expression for describing competitive binding of two different ligands to a protein molecule. FEBS Lett. 1995 360:111-114). The TR-FRET assay can be performed in the presence of varying concentrations of human serum (HS) or fetal bovine serum (FBS). For comparison, the measurement of the competition of compounds of the invention for other Bcl-2 family protein binding sites (e.g., Bcl-2, Mcl-1) using the TR-FRET binding assay was accomplish by substituting GST-Bcl-xL in the TR-FRET assay with other GST-labeled protein, e.g., GST-Bcl-2, GST-Mcl-1, prepared in-house.

Bcl-xL (GST-Bcl-xL) [1] = target: T2, Bcl-xL (GST-Bcl-xL) (Homo sapiens, UniProt Q07817); assay: TR-FRET binding assay, competition with F-Bak for the Bcl-xL binding site; details: values listed in the order of Table 1, read-out: TR-FRET assay results (Ki), Bcl-xL
Bcl-xL (GST-Bcl-xL) [2] = target: T2, Bcl-xL (GST-Bcl-xL); assay: AlphaScreen Bcl-xL binding assay, competition with biotinylated Bim peptide; design: made in house; details: values listed in the order of Table 1; read-out: Alphascreen results (IC50) against the Bcl-xL protein
Outline: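 Acceptor beads with GST-Bcl-xL were combined with donor beads carrying biotinylated Bim peptide after each bead mix was preincubated 30 min at room temperature. Compounds in DMSO, 2-fold serially diluted, were incubated 30 min at room temperature before donor addition, with duplicate plates. Percent inhibition was taken against no-protein and DMSO controls, and IC50 was calculated.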

T2 sequence (Q07817 whole entry, species assumed): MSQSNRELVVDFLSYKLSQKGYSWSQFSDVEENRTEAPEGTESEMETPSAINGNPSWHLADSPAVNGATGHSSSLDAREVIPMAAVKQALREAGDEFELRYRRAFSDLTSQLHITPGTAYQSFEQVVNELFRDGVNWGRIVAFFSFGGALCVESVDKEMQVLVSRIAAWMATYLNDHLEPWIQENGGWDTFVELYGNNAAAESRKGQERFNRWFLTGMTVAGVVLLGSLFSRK
T1 sequence (P10415 whole entry, species assumed): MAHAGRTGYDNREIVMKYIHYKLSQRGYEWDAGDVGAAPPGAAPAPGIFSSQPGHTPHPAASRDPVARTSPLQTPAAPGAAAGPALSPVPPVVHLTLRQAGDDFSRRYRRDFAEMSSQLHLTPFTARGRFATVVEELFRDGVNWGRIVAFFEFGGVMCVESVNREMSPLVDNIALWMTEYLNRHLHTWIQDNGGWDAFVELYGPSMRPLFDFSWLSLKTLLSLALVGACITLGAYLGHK

Row | Compound | Ki (Bcl-2 (GST-Bcl-2)) | Ki (Bcl-xL (GST-Bcl-xL) [1]) | IC50 (Bcl-xL (GST-Bcl-xL) [2])
1 | CC(C)n1cnc2c(-c3ccc(OCCCc4sc(N5CCc6cccc(C(=O)Nc7nc8ccccc8s7)c6C5)nc4C(=O)O)cc3)ncnc21 [Example 52, 2-(8-(benzo[d]thiazol-2-ylcarbamoyl)-3,4-dihydroisoquinolin-2(1H)-yl)-5-(3-(4-(9-isopropyl-9H-purin-6-yl)phenoxy)propyl)thiazole-4-carboxylic acid] | 130 nM | 0.05 nM | –
2 | O=C(Nc1nc2ccccc2s1)c1cccc2c1CN(c1nc(C(=O)O)c(CCOc3ccccc3)s1)CC2 [Example 76, 2-(8-(benzo[d]thiazol-2-ylcarbamoyl)-3,4-dihydroisoquinolin-2(1H)-yl)-5-(2-phenoxyethyl)thiazole-4-carboxylic acid] | 350 nM | – | –
3 | O=C(Nc1nc2ccccc2s1)c1cccc2c1CN(c1nc(C(=O)O)c(CN3CCN(c4ccccc4)CC3)s1)CC2 [Example 62, 2-(8-(benzo[d]thiazol-2-ylcarbamoyl)-3,4-dihydroisoquinolin-2(1H)-yl)-5-((4-phenylpiperazin-1-yl)methyl)thiazole-4-carboxylic acid] | – | 130 nM | 1600 nM
4 | O=C(Nc1nc2ccccc2s1)c1cccc2c1CN(c1nc(C(=O)O)c(CCCOc3ccc(-n4cccn4)cc3)s1)CC2 [Example 48, 5-(3-(4-(1H-pyrazol-1-yl)phenoxy)propyl)-2-(8-(benzo[d]thiazol-2-ylcarbamoyl)-3,4-dihydroisoquinolin-2(1H)-yl)thiazole-4-carboxylic acid] | – | 0.05 nM | 0.3 nM
5 | N#Cc1cscc1-c1ccc(OCCCc2sc(N3CCc4cccc(C(=O)Nc5nc6ccccc6s5)c4C3)nc2C(=O)O)cc1 [Example 51, 2-[8-(Benzothiazol-2-ylcarbamoyl)-3,4-dihydro-1H-isoquinolin-2-yl]-5-{3-[4-(4-cyano-thiophen-3-yl)-phenoxy]-propyl}-thiazole-4-carboxylic acid] | – | 0.3 nM | 6 nM
6 | CC1(C)[C@H]2CC[C@]1(C)C(Oc1ccccc1OCCCc1sc(N3CCc4cccc(C(=O)Nc5nc6ccccc6s5)c4C3)nc1C(=O)O)C2 (stereo partly drawn) [Example 22, 2-(8-(benzo[d]thiazol-2-ylcarbamoyl)-3,4-dihydroisoquinolin-2(1H)-yl)-5-(3-(2-((1S,4S)-1,7,7-trimethylbicyclo[2.2.1]heptan-2-yloxy)phenoxy)propyl)thiazole-4-carboxylic acid] | – | 19 nM | 50 nM
7 | CN(C)CC#Cc1ccc(OCCCc2sc(N3CCc4cccc(C(=O)Nc5nc6ccccc6s5)c4C3)nc2C(=O)O)cc1F [Example 117, 2-(8-(benzo[d]thiazol-2-ylcarbamoyl)-3,4-dihydroisoquinolin-2(1H)-yl)-5-(3-(4-(3-(dimethylamino)prop-1-ynyl)-3-fluorophenoxy)propyl)thiazole-4-carboxylic acid] | – | 3 nM | 17 nM
8 | CN1CCC(Nc2ccc(OCCCc3ccc(N4CCc5cccc(C(=O)Nc6nc7ccccc7s6)c5C4)nc3C(=O)O)cc2)CC1 [Example 104, 6-(8-(Benzo[d]thiazol-2-ylcarbamoyl)-3,4-dihydroisoquinolin-2(1H)-yl)-3-(3-(4-(1-methylpiperidin-4-ylamino)phenoxy)propyl)picolinic acid] | – | 1 nM | 9.6 nM
9 | O=C(Nc1nc2ccccc2s1)c1cccc2c1CN(c1nc(C(=O)O)c(CCCN3CCCCC3)s1)CC2 [Example 20, 2-(8-(benzo[d]thiazol-2-ylcarbamoyl)-3,4-dihydroisoquinolin-2(1H)-yl)-5-(3-(piperidin-1-yl)propyl)thiazole-4-carboxylic acid] | – | 3 nM | 8 nM
10 | O=C(Nc1nc2ccccc2s1)c1cccc2c1CN(c1nc(C(=O)O)c(CCCn3cccn3)s1)CC2 [Example 7, 5-(3-(1H-pyrazol-1-yl)propyl)-2-(8-(benzo[d]thiazol-2-ylcarbamoyl)-3,4-dihydroisoquinolin-2(1H)-yl)thiazole-4-carboxylic acid] | – | 7 nM | 25 nM
11 | O=C(Nc1nc2ccccc2s1)c1cccc2c1CN(c1ccc(-c3ccccc3)c(C(=O)O)n1)CC2 [Compound 125, 6-(8-(benzo[d]thiazol-2-ylcarbamoyl)-3,4-dihydroisoquinolin-2(1H)-yl)-3-phenylpicolinic acid] | – | 66.2 nM | 124 nM
12 | O=C(Nc1nc2ccccc2s1)c1cccc2c1CN(c1nc(C(=O)O)c(CCCOc3ccc(-n4ncc5cncnc54)cc3)s1)CC2 [Example 21, 5-(3-(4-(1H-pyrazolo[3,4-d]pyrimidin-1-yl)phenoxy)propyl)-2-(8-(benzo[d]thiazol-2-ylcarbamoyl)-3,4-dihydroisoquinolin-2(1H)-yl)thiazole-4-carboxylic acid] | – | 0.05 nM | 0.3 nM
13 | O=C(Nc1nc2ccccc2s1)c1cccc2c1CN(c1ccc(CCc3ccccc3)c(C(=O)O)n1)CC2 [Compound 127, 6-(8-(benzo[d]thiazol-2-ylcarbamoyl)-3,4-dihydroisoquinolin-2(1H)-yl)-3-phenethylpicolinic acid] | – | 660 nM | 598 nM
14 | CCCN(CCc1ccc(OCCCc2sc(N3CCc4cccc(C(=O)Nc5nc6ccccc6s5)c4C3)nc2C(=O)O)cc1)CC1CCCc2c1ccc(OC)c2OC (stereo not drawn) [Example 28, 2-(8-(benzo[d]thiazol-2-ylcarbamoyl)-3,4-dihydroisoquinolin-2(1H)-yl)-5-(3-(4-(2-(((5,6-dimethoxy-1,2,3,4-tetrahydronaphthalen-1-yl)methyl)(propyl)amino)ethyl)phenoxy)propyl)thiazole-4-carboxylic acid] | – | 1 nM | 8 nM
15 | O=C(Nc1nc2ccccc2s1)c1cccc2c1CN(c1nc(C(=O)O)c(C#CCO)s1)CC2 [Example 14, 2-(8-(Benzo[d]thiazol-2-ylcarbamoyl)-3,4-dihydroisoquinolin-2(1H)-yl)-5-(3-hydroxyprop-1-ynyl)thiazole-4-carboxylic acid] | – | 6 nM | 20 nM
16 | O=C(Nc1nc2ccccc2s1)c1cccc2c1CN(c1nc(C(=O)O)c(CCCn3cnc4ccccc43)s1)CC2 [Example 15, 5-(3-(1H-benzo[d]imidazol-1-yl)propyl)-2-(8-(benzo[d]thiazol-2-ylcarbamoyl)-3,4-dihydroisoquinolin-2(1H)-yl)thiazole-4-carboxylic acid] | – | 3 nM | 10 nM
17 | Nc1nc2ccccc2n1-c1ccc(OCCCc2sc(N3CCc4cccc(C(=O)Nc5nc6ccccc6s5)c4C3)nc2C(=O)O)cc1 [Example 77, 5-(3-(4-(2-amino-1H-benzo[d]imidazol-1-yl)phenoxy)propyl)-2-(8-(benzo[d]thiazol-2-ylcarbamoyl)-3,4-dihydroisoquinolin-2(1H)-yl)thiazole-4-carboxylic acid] | – | 7 nM | 34 nM
18 | O=C(Nc1nc2ccccc2s1)c1cccc2c1CN(c1nc(C(=O)O)c(CCNS(=O)(=O)c3cccc([N+](=O)[O-])c3)s1)CC2 [Example 70, 2-[8-(Benzothiazol-2-ylcarbamoyl)-3,4-dihydro-1H-isoquinolin-2-yl]-5-[2-(3-nitro-benzenesulfonylamino)-ethyl]thiazole-4-carboxylic acid] | 500 nM | 40 nM | 260 nM
19 | O=C(Nc1nc2ccccc2s1)c1cccc2c1CN(c1nc(C(=O)O)c(CCCOc3ccc(-c4cccnc4)cc3)s1)CC2 [Example 41, 2-(8-(Benzo[d]thiazol-2-ylcarbamoyl)-3,4-dihydroisoquinolin-2(1H)-yl)-5-(3-(4-(pyridin-3-yl)phenoxy)propyl)thiazole-4-carboxylic acid] | – | 0.1 nM | 0.7 nM
20 | N#Cc1c(-c2ccc(OCc3ccc(-c4sc(N5CCc6cccc(C(=O)Nc7nc8ccccc8s7)c6C5)nc4C(=O)O)cc3)cc2)n[nH]c1N [Example 35, 5-(4-((4-(5-amino-4-cyano-1H-pyrazol-3-yl)phenoxy)methyl)phenyl)-2-(8-(benzo[d]thiazol-2-ylcarbamoyl)-3,4-dihydroisoquinolin-2(1H)-yl)thiazole-4-carboxylic acid] | – | 4 nM | 10 nM
21 | N#CC1(c2ccc(OCCCc3sc(N4CCc5cccc(C(=O)Nc6nc7ccccc7s6)c5C4)nc3C(=O)O)cc2)CCC1 [Example 26, 2-(8-(benzo[d]thiazol-2-ylcarbamoyl)-3,4-dihydroisoquinolin-2(1H)-yl)-5-(3-(4-(1-cyanocyclobutyl)phenoxy)propyl)thiazole-4-carboxylic acid] | – | 3 nM | 5 nM
